From ChEMBL document CHEMBL1139628, “Beta-lactam compounds as apparently uncompetitive inhibitors of HIV-1 protease” (Bioorg Med Chem Lett, 2005) come the findings set out here.

The Ki is the equilibrium dissociation constant of an inhibitor or competing ligand from its target.

Assay [1] addresses Human immunodeficiency virus type 1 protease (Human immunodeficiency virus 1) (UniProt Q72874). As to the kind of experiment: Percent inhibition against human immunodeficiency virus 1 protease. Also noted: concentration or dose not given beside the values. The conditions noted are these: concentration not given here.
Assay [2] has the same target. As to the kind of experiment: Ratio of Michaelis-Menten constant and catalytic constant against human immunodeficiency virus type I protease.
Assay [3] has the same target. In words: Catalytic constant against human immunodeficiency virus typeI protease.
For assay [4] the target is unchanged. In words: Inhibitory activity against human immunodeficiency virus type I protease.
Assay [5] deals with Human immunodeficiency virus type 1 protease (Human immunodeficiency virus 1, UniProt Q72874). In words: Inhibition constant against human immunodeficiency virus 1 protease.
In assay [6] the target is Human immunodeficiency virus type 1 protease (Human immunodeficiency virus 1) (UniProt Q72874). In words: Inhibitory activity against human immunodeficiency virus typeI protease.

As for `CCC[C@@H](C(=O)NCC(=O)OC)N1C(=O)CC1C(=O)N[C@@H](Cc1ccccc1)C(=O)OC` (some centres not stated), the inhibition in assay [1] amounted to 103%.
In the case of `CC1CN(C(C(=O)NCc2ccccc2)c2ccccc2)C1=O` (configuration not stated), in assay [1], the inhibition was 86%.
As to `O=C(NCC1N=Cc2cncnc21)C(Cc1ccccc1)N1C(=O)CC1C(=O)OCc1ccccc1` (configuration not stated), the inhibition in assay [1] was found to be 66%.
For the compound `CC(C)CNC(=O)C(Cc1ccccc1)N1CCC1=O` (configuration not stated), the inhibition in assay [1] stood at 65%.
On the same count and under the same terms, with `CCCCNC(=O)C(Cc1ccccc1)N1C(=O)CC1c1ccccc1` (configuration not stated) the figure was 74%.
`O=C(NCC1N=Cc2cncnc21)C(c1ccccc1)N1C(=O)CC1c1ccccc1` (configuration not stated): in assay [1], the inhibition was found to be 78%.
Still for that read-out and setting: the value for `CCCCNC(=O)C(c1ccccc1)N1C(=O)CC1c1ccccc1` (configuration not stated) was 63%; that for `COC(=O)CNC(=O)[C@H](c1ccccc1)N1C[C@H](C)C1=O` was 63%; that for `COC(=O)C(Cc1ccccc1)NC(=O)C1CC(=O)N1C(Cc1ccccc1)C(=O)NCC(C)C` (configuration not stated) was 68%.
Same read-out and setting: with `CC1CN(C(Cc2ccccc2)C(=O)NCC2CCCCC2)C1=O` (configuration not stated) the figure was 76%.
As for `CCCC(C(=O)NCC1CCCCC1)N1C(=O)CC1C(=O)NC(Cc1ccccc1)C(=O)OC` (configuration not stated), the inhibition in assay [1] was determined as 71%.
Same read-out and setting: the value for `O=C(NCC1N=Cc2cncnc21)C(c1ccccc1)N1CCC1=O` (configuration not stated) was 68%.
On to `COC(=O)C(Cc1ccccc1)NC(=O)C1C(O)C(=O)N1C(C(=O)NCC1N=Cc2cncnc21)c1ccccc1` (configuration not stated), for which, in assay [2], the Ratio was found to be 0.155 mM⁻¹ s⁻¹. The K cat in assay [3] was 0.1 s⁻¹. Further, the results for the inhibition in assay [1] and in assay [4] were 97% and 80 µM, respectively. For the same compound, the affinity in assay [5] corresponds to a Ki of 63.2 µM.
With `CC1CN(C(Cc2ccccc2)C(=O)NCC2N=Cc3cncnc32)C1=O` (configuration not stated), in assay [1], the inhibition came out at 71%.
On the same count and under the same terms, with `CCC[C@@H](C(=O)NCC(=O)OC)N1C(=O)C[C@H]1c1ccccc1` the figure was 68%; with `CCCCNC(=O)C(Cc1ccccc1)N1CC(C)C1=O` (configuration not stated), 78%.
Still for that read-out and setting: with `COC(=O)C(Cc1ccccc1)NC(=O)C1CC(=O)N1C(C(=O)NCC(C)C)c1ccccc1` (configuration not stated) the figure was 71%.
Consider `CCCCNC(=O)C(c1ccccc1)N1C(=O)CC1C(=O)OCc1ccccc1` (configuration not stated), for which, in assay [1], the inhibition was determined as 71%.
Regarding `CC1CC(=O)N1C(Cc1ccccc1)C(=O)NCC1CCCCC1` (configuration not stated), the inhibition in assay [1] amounted to 71%.
As to `CCCCNC(=O)C(c1ccccc1)N1C(=O)CC1C(=O)NC(Cc1ccccc1)C(=O)OC` (configuration not stated), in assay [1], the inhibition was 86%.
On the same count and under the same terms, with `CC1CC(=O)N1C(C(=O)NCc1ccccc1)c1ccccc1` (configuration not stated) the figure was 67%.
Same read-out and setting: with `COC(=O)CNC(=O)[C@H](c1ccccc1)N1CCC1=O` the figure was 70%; with `CCCC(C(=O)NCC1N=Cc2cncnc21)N1C(=O)CC1C(=O)OCc1ccccc1` (configuration not stated), 83%.
As for `O=C(NCc1ccccc1)C(c1ccccc1)N1C(=O)CC1c1ccccc1` (configuration not stated), the inhibition in assay [1] is 75%.
On the same count and under the same terms, the value for `CC1CN(C(C(=O)NCC2N=Cc3cncnc32)c2ccccc2)C1=O` (configuration not stated) was 76%.
Consider `O=C(OCc1ccccc1)C1CC(=O)N1C(C(=O)NCC1N=Cc2cncnc21)c1ccccc1` (configuration not stated), for which the Ratio in assay [2] was determined as 0.151 mM⁻¹ s⁻¹. In addition, the K cat in assay [3] was found to be 0.126 s⁻¹. Besides, the figures for the inhibition in assay [1] and in assay [4] were 97% and 60 µM, respectively. Besides, the Ki in assay [5] came to 60.3 µM.
`CCCC(C(=O)NCC(=O)OC)N1C(=O)C(C)C1C(=O)OCc1ccccc1` (configuration not stated): the inhibition in assay [1] came to 87%.
On the same count and under the same terms, with `CCCC(C(=O)NCC1N=Cc2cncnc21)N1CCC1=O` (configuration not stated) the figure was 74%.
`CCCCNC(=O)C(CCC)N1C(=O)CC1c1ccccc1` (configuration not stated): the inhibition in assay [1] stood at 93%.
The same measure, in the same setting: the value for `CC1CC(=O)N1C(C(=O)NCC1CCCCC1)c1ccccc1` (configuration not stated) was 83%.
For `COC(=O)CNC(=O)C(c1ccccc1)N1C(=O)CC1C(=O)OCc1ccccc1` (configuration not stated), the figures for the inhibition in assay [6] and in assay [1] were 1000 µM and 97%, respectively. The Ratio in assay [2] worked out at 0.157 mM⁻¹ s⁻¹. The K cat in assay [3] was determined as 0.144 s⁻¹. The affinity in assay [5] corresponds to a Ki of 1140 µM.
For the compound `COC(=O)CNC(=O)[C@H](Cc1ccccc1)N1C(=O)C[C@H]1C(=O)N[C@@H](Cc1ccccc1)C(=O)OC`, the inhibition in assay [1] is 69%.
As for `COC(=O)CNC(=O)C(Cc1ccccc1)N1C(=O)CC1C(=O)OCc1ccccc1` (configuration not stated), in assay [1], the inhibition was 67%.
On the same count and under the same terms, the value for `O=C(OCc1ccccc1)C1CC(=O)N1C(C(=O)NCc1ccccc1)c1ccccc1` (configuration not stated) was 119%.
Same read-out and setting: the value for `CC1CC(=O)N1C(Cc1ccccc1)C(=O)NCC1C=Nc2cncnc21` (configuration not stated) was 62%.
The same measure, in the same setting: the value for `O=C(NCC1CCCCC1)C(c1ccccc1)N1CCC1=O` (configuration not stated) was 79%; that for `O=C(NCc1ccccc1)C(Cc1ccccc1)N1CCC1=O` (configuration not stated) was 65%.
Turning to `O=C(NCC1CCCCC1)C(Cc1ccccc1)N1CC(O)C1=O` (configuration not stated), the inhibition in assay [1] turned out to be 66%.
For the compound `CC1C(=O)N(C(C(=O)NCC2CCCCC2)c2ccccc2)C1C(=O)OCc1ccccc1` (configuration not stated), in assay [1], the inhibition stood at 92%.
On the same count and under the same terms, the value for `CC(C)CNC(=O)C(Cc1ccccc1)N1CC(C)C1=O` (configuration not stated) was 72%.
